Values after ≈ are worked out from the molar mass of the structure shown. Like-named read-outs stand apart in the source and are kept apart here.
Test: Aqueous solubility measurements
Format: physicochemical
Settings: for pH: final pH of saturated solution; for solubility at 24 h: thermodynamic from solid, read-out: HPLC solubility
Description: Testing media: water, pH 1.2, 4.5, 6.8, 7.4 USP buffers, 0.01 N HCl, 0.1 N HCl, SGF, FaSSIF, FeSSIF.
The various testing media were prepared as follows:
pH 1.2 (USP): 50 mL of 0.2 M potassium chloride solution were placed in a 200 mL volumetric flask to which 85.0 mL of 0.2M hydrochloric acid solution were added followed by the addition of water to obtain the required volume.
pH 4.5 (USP): 50 mL of 0.2 M potassium biphthalate solution were placed in a 200 mL volumetric flask to which 8.8 mL of 0.2 M sodium hydroxide solution were added followed by the addition of water to obtain the required volume.
pH 6.8 (USP): 50 mL of 0.2 M monobasic potassium phosphate solution were placed in a 200 mL volumetric flask to which 22.4 mL of 0.2 M sodium hydroxide solution were added followed by the addition of water to obtain the required volume.
pH 7.4 (USP): 50 mL of 0.2 M monobasic potassium phosphate solution were placed in a 200 mL volumetric flask to which 39.1 mL of 0.2 M sodium hydroxide solution were added followed by the addition of water to obtain the required volume.
Simulated gastric fluid (SGF): 0.01 N HCl, 0.05% sodium lauryl sulfate, and 0.2% NaCl.
Fasted state simulated intestinal fluid (FaSSIF): 29 mM NaH2PO4, 3 mM Na taurocholate, 0.75 mM lecithin, 103 mM NaCl, and NaOH to obtain pH 6.5.
Fed state simulated intestinal fluid (FeSSIF): 144 mM acetic acid, 15 mM Na taurocholate, 3.75 mM lecithin, 204 mM NaCl, and NaOH to obtain pH 5.0.
Testing procedure: The tested febuxostat form was placed in each of the different media and was kept shaken for 24 hours at 25° C. Then, the saturated solution was filtered. The concentration of the febuxostat form in filtrate was determined by HPLC. The final pH was then tested. The test was conducted in duplication.

[1] = media 0.01N HCl, 24 hours at 25° C.
[2] = media 0.1N HCl, 24 hours at 25° C.
[3] = media FaSSIF, 24 hours at 25° C.
[4] = media FeSSIF, 24 hours at 25° C.
[5] = media pH 1.2 (USP), 24 hours at 25° C.
[6] = media pH 4.5 (USP), 24 hours at 25° C.
[7] = media pH 6.8 (USP), 24 hours at 25° C.
[8] = media pH 7.4 (USP), 24 hours at 25° C.
[9] = media water, shaken 24 hours at 25° C.
[10] = media water, 24 hours at 25° C.
[11] = pH1.2 USP buffer, 0.01N HCl, 0.1N HCl and SGF
[12] = pH6.8 USP buffer, pH7.4 USP buffer, FaSSIF, FeSSIF

Cc1nc(-c2ccc(OCC(C)C)c(C#N)c2)sc1C(=O)O [Form IX, 2-(3-cyano-4-isobutoxyphenyl)-4-methyl-5-thiazolecarboxylic acid]
solubility at colon-simulated media and intestinal fluids (in words) (colon-simulated media (pHs=6.8-7.4) and intestinal fluids): improved solubility
pH [1]: 2.078
pH [2]: 1.060
pH [3]: 6.246
pH [4]: 4.983
pH (media SGF, 24 hours at 25° C.): 2.097
pH [5]: 1.242
pH [6]: 4.524
pH [7]: 6.477
pH [8]: 6.690
pH [9]: 5.403
Visual solubility [1]: Turbid + few particles
Visual solubility [2]: Turbid + few particles
HPLC solubility [3]: 606.65 µg/mL
Visual solubility [3]: Turbid
HPLC solubility [4]: 192.53 µg/mL
Visual solubility [4]: Turbid
Visual solubility (media SGF, 24 hours at 25° C.): Turbid
Visual solubility [5]: Turbid + few particles
HPLC solubility [6]: 0.78 µg/mL
Visual solubility [6]: Turbid + few particles
HPLC solubility [7]: 1409.99 µg/mL
Visual solubility [7]: Turbid + few particles
HPLC solubility [8]: 4836.10 µg/mL
Visual solubility [8]: Slightly turbid
HPLC solubility [10]: 32.99 µg/mL
Visual solubility [10]: Turbid + few particles
aqueous solubility (in words) [11]: poor solubility
aqueous solubility (in words) [12]: good solubility

Cc1nc(-c2ccc(OCC(C)C)c(C#N)c2)sc1C(=O)O [Form V, 2-(3-cyano-4-isobutoxyphenyl)-4-methyl-5-thiazolecarboxylic acid]
solubility at 24 h (USP buffer pH 6.8, 25 °C, pH 6.8, aqueous buffer, media pH 6.8 (USP), 24 hours at 25° C.): 1120 µg/mL (≈ 3550 µM)
pH [1]: 2.003
pH [2]: 0.951
pH [3]: 6.384
pH [4]: 4.995
pH (media SGF, 24 hours at 25° C.): 2.108
pH [5]: 1.157
pH [6]: 4.452
pH [7]: 6.641
pH [8]: 6.960
pH [9]: 7.520
Visual solubility [1]: few particles
Visual solubility [2]: few particles
HPLC solubility [3]: 513.37 µg/mL
Visual solubility [3]: Turbid + few particles
HPLC solubility [4]: 180.61 µg/mL
Visual solubility [4]: Turbid + few particles
Visual solubility (media SGF, 24 hours at 25° C.): few particles
Visual solubility [5]: few particles
HPLC solubility [6]: 0.38 µg/mL
Visual solubility [6]: Turbid + few particles
Visual solubility [7]: Turbid + few particles
HPLC solubility [8]: 4317.12 µg/mL
Visual solubility [8]: Slightly turbid
Visual solubility [10]: Turbid + few particles
aqueous solubility (in words) [11]: poor solubility
aqueous solubility (in words) [12]: good solubility
solubility at 24 h (water, 25 °C, water, media water, 24 hours at 25° C.): 54.9 µg/mL (≈ 173 µM)

Cc1nc(-c2ccc(OCC(C)C)c(C#N)c2)sc1C(=O)O [Form XI, 2-(3-cyano-4-isobutoxyphenyl)-4-methyl-5-thiazolecarboxylic acid]
pH [1]: 1.981
pH [2]: 0.967
pH [3]: 6.336
pH [4]: 4.998
pH (media SGF, 24 hours at 25° C.): 2.114
pH [5]: 1.132
pH [6]: 4.479
pH [7]: 6.684
pH [8]: 6.905
pH [9]: 8.106
Visual solubility [1]: few particles
Visual solubility [2]: few particles
HPLC solubility [3]: 521.19 µg/mL
Visual solubility [3]: Turbid + few particles
HPLC solubility [4]: 149.95 µg/mL
Visual solubility [4]: Turbid + few particles
Visual solubility (media SGF, 24 hours at 25° C.): few particles
Visual solubility [5]: few particles
HPLC solubility [6]: 0.49 µg/mL
Visual solubility [6]: few particles
HPLC solubility [7]: 931.90 µg/mL
Visual solubility [7]: Turbid + few particles
HPLC solubility [8]: 4464.94 µg/mL
Visual solubility [8]: Slightly turbid + few
HPLC solubility [10]: 33.82 µg/mL
Visual solubility [10]: Turbid + few particles
aqueous solubility (in words) [11]: poor solubility
aqueous solubility (in words) [12]: good solubility

Reference: patent US20130225830A1, “POLYMORPHS OF FEBUXOSTAT” (MAPI PHARMA LIMITED, priority 2010, published 2013)
